# Measurements: ChEMBL document CHEMBL1129412, “Computation of brain-blood partitioning of organic solutes via free energy calculations” (J Med Chem, 1996)
# Assay: logBB, log(C brain/C blood)
# Conditions: blood
row,SMILES,Kp
1,CN(C)Cc1ccnc(-c2cccc(Nc3[nH]ccc3[N+](=O)[O-])c2)c1,0.525
2,CC(=O)Nc1cccc(-c2csc(N=C(N)N)n2)c1,0.0269
3,CN/C(=N/CCSCc1nc[nH]c1C)NC#N [CIMETIDINE],0.038

# Continued, values first:
row,Kp,SMILES
1,0.575,O=C(NCCCOc1cccc(CN2CCCCC2)c1)c1ccccc1
2,0.912,Cc1csc(N=C(N)N)n1
3,4.9,c1ccc(NCCCOc2cccc(CN3CCCCC3)c2)nc1
4,2.75,c1cc(CN2CCCCC2)cc(OCCCNc2nccs2)c1
5,0.347,CC(=O)NCCCOc1cccc(CN2CCCCC2)c1
6,0.186,CN(C)Cc1ccc(CSCCNc2[nH]cc(Cc3ccccc3)c2[N+](=O)[O-])o1
7,0.00708,CC/N=C(\NC#N)NCCSCc1ncccc1Br
8,0.01,COc1cccnc1CCCCNc1ncc(Cc2ccc(C)nc2)c(=O)[nH]1 [ICOTIDINE]
9,6.76,CN(C)CCCN1c2ccccc2CCc2ccccc21 [IMIPRAMINE]
10,3.09,COc1ccc(CN(CCN(C)C)c2ccccn2)cc1 [PYRILAMINE]

# Same assay, conditions: brain / blood
row,SMILES,Kp
1,NC(N)=Nc1nc(-c2ccccc2)cs1,0.661
2,O=[N+]([O-])c1cc[nH]c1NCCSCc1ncccc1Br,0.214
3,N=C(N)Nc1nc(-c2cccc(N)c2)cs1,0.0708
4,CN(C)c1cc(-c2n[nH]c(N)n2)ccn1,0.0676
5,C/N=C(\NC#N)Nc1cccc(-c2csc(N=C(N)N)n2)c1,0.0288

# Further lines, results first:
row,Kp,SMILES
1,0.0501,CN(C)Cc1ccc(CSCCNc2ncc(Cc3ccc4ccccc4c3)c(O)n2)o1
2,0.759,O=[N+]([O-])c1c(Cc2ccccc2)c[nH]c1NCCSCc1ccccn1
3,0.0759,CN(C)Cc1ccc(CSCCNc2[nH]ccc2[N+](=O)[O-])o1
4,0.0871,Cc1ccc(Cc2c[nH]c(NCCSCc3ccc(CN(C)C)o3)nc2=O)cn1 [LUPITIDINE]

# Assay: logBB, log(C brain / C blood)
# Conditions: blood
row,SMILES,Kp
1,FC(F)OC(F)(F)C(F)Cl (stereo not drawn),1.74
2,FC(Br)C(F)(F)F (stereo not drawn),1.86
3,CN1Cc2c(-c3noc(C(C)(O)CO)n3)ncn2-c2cccc(Cl)c2C1=O (stereo not drawn),0.0151
4,c1ccccc1 [BENZENE],2.34
5,CCC(C)=O [BUTANONE],0.832
6,NC(=O)N1c2ccccc2C=Cc2ccccc21 [CARBAMAZEPINE],1
7,C=COCC(F)(F)F [FLUROXENE],1.35
8,FC(F)(F)C(Cl)Br (stereo not drawn) [HALOTHANE],2.24
9,CCCCCC [HEXANE],6.31
10,FC(F)OC(Cl)C(F)(F)F (stereo not drawn) [ISOFLURANE],2.63
11,CC1CCCC1 [METHYLCYCLOPENTANE],8.51
12,Cc1ccccc1 [TOLUENE],2.34
13,CC(Cl)(Cl)Cl [TRICHLOROETHANE],2.51
14,ClC=C(Cl)Cl [TRICHLOROETHYLENE],2.19

# Further lines, results first:
row,Kp,SMILES
1,7.94,CCCC(C)CC (stereo not drawn)
2,10.2,CCC(C)CC
3,0.692,CCO [ALCOHOL]
4,6.46,CCCCCCC [HEPTANE]
5,0.708,CC(C)O [ISOPROPYL ALCOHOL]

# Same assay, conditions: brain / blood
row,SMILES,Kp
1,FC(F)(F)CCl,1.2
2,CN1Cc2c(-c3noc(C(C)(C)O)n3)ncn2-c2cccc(Cl)c2C1=O,0.0457
3,CC(C)c1nc(-c2ncn3c2CN(C)C(=O)c2c(Cl)cccc2-3)no1,0.501
4,CN(C)Cc1ccc(-c2cccc(Nc3[nH]ccc3[N+](=O)[O-])c2)o1,0.537
5,NC(=O)N1c2ccccc2C2OC2c2ccccc21 (stereo not drawn) [CARBAMAZEPINE EPOXIDE],0.457
6,C [METHANE],1.1
7,N#N [NITROGEN],1.07
8,CCCCC [PENTANE],5.75

# The remaining lines, values ahead:
row,Kp,SMILES
1,11,CCC(C)(C)C
2,9.33,CCCC(C)C
3,0.676,CC(C)CO [ISOBUTANOL]

# Assay: The ratio of brain-blood partitioning, (C brain / C blood).
# Type: ADME, tissue-based
# Conditions: not given
row,SMILES,Kp
1,CN1Cc2c(-c3noc(C(C)(O)CO)n3)ncn2-c2cccc(Cl)c2C1=O (stereo not drawn),0.015
2,CN1Cc2c(-c3noc(C(C)(C)O)n3)ncn2-c2cccc(Cl)c2C1=O,0.046
3,CC(C)c1nc(-c2ncn3c2CN(C)C(=O)c2c(Cl)cccc2-3)no1,0.5
4,CN(C)CCC=C1c2ccccc2CCc2ccccc21 [AMITRIPTYLINE],9.6
5,NC(=O)N1c2ccccc2C2OC2c2ccccc21 (stereo not drawn) [CARBAMAZEPINE EPOXIDE],0.46
6,NC(=O)N1c2ccccc2C=Cc2ccccc21 [CARBAMAZEPINE],1
